In one data set the target is T1, CCR3 (Mus musculus, UniProt P51678).
T1 construct: host or cells: unnamed cell line
T1 sequence (P51678 1-359): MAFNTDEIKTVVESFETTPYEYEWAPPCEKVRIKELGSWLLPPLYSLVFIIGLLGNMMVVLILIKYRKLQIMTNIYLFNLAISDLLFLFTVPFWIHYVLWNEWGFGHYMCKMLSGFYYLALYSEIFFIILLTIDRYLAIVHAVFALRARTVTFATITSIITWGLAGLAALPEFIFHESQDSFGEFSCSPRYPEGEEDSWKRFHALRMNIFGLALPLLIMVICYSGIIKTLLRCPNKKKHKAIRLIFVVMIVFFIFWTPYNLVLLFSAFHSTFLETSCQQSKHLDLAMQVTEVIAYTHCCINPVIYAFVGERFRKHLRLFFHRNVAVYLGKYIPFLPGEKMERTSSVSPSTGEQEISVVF
Description: cell line receptor binding (Ki for the compound in mice). Particulars: determined by cell line receptor binding.

Data set [1] can be described thus: Compound plasma levels in mice under Alzet pump infusion. The data set is classed as in vivo, C57BL/6 mice. Particulars: C57BL/6, mouse, other: Alzet pump infusion (perfused), 25 µg/hr, mean±s.e.m., read-out: level of the compound in plasma. The protocol: Compound levels were measured by MS/MS by Quintara (Hayward, Calif.).
FIG. 6 depicts the levels of the compound of the invention that were detected in mouse CSF for both the young and old groups (both below 10 nM).

The nature of data set [2]: Tissue distribution of [14C]-radiolabeled Compound 1 (LSC, whole body autoradiography). The data set is classed as in vivo, C57BL/6JOlaHsd mice. Particulars: 10 mg/kg oral, [14C]-label; 1, 24, 168 hours. The protocol:
The distribution of Compound 1 in mouse tissues was determined after oral administration of which was [^14C]-radiolabeled (“Labeled Compound”) to male pigmented C57BL/6JOlaHsd mice (Harlan Labs, BV). The Labeled Compound was administered at 10 mg/kg of body weight, corresponding to 17 μmol/kg. One animal was sacrificed after 1, 24, and 168 hours post-administration. Blood, plasma, and eye radioactivity concentrations were measured using liquid scintillation counting (LSC). Tissue and organ concentrations were determined by whole body autoradiography technique (QWBA). […]
The following sections were taken at different levels through the embedded animal, and whole body sections selected at 5-7 levels in order to allow for quantitative evaluation of radioactivity: adrenal glands; blood; bone marrow; brain; eye (lens); epididymis; fat (white and brown); Harderian gland; heart; kidneys; liver; lung; muscle; pituitary; pancreas; prostate, spinal cord; spleen salivary gland; skin; testis; thyroid; thymus; uveal tract. […]
FIG. 7 depicts a chart of values reporting the area under the curve (AUC) for all three time points, and quantifies each tissue's exposure to the Labeled POI after administration of the compound.

The target of another data set is T2, CCR3 receptor (Homo sapiens, UniProt P51677).
T2 sequence (P51677 1-355): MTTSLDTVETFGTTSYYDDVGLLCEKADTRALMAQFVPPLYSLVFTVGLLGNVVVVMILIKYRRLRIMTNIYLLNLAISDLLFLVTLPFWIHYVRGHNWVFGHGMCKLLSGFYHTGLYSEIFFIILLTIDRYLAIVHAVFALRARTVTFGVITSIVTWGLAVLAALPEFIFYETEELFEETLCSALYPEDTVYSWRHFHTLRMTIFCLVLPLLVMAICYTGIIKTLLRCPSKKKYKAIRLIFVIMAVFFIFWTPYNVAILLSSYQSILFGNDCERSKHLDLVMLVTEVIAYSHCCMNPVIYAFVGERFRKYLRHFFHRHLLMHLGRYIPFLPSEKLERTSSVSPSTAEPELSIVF
Description: CCR3 receptor internalization biomarker assay (FACS, whole blood). The data set is classed as cell-based.

For data set [3], the system named is human eosinophils activated by human eotaxin-1. In words: Eosinophil shape change (ESC) assay (FACS, whole blood). The class given is cell-based. Particulars: whole blood from humans treated with Compound 1, incubated with human recombinant eotaxin-1. The protocol: The ESC determines the shape change of human eosinophils activated by human eotaxin-1 (PreProTech, Rocky Hill, N.J.) compared to native eosinophils. The change is detected as the change in the forward-scatter measured by FACS (fluorescence activated cell sorter). The mean forward scatter of the autofluorescence (eosinophil) population for each sample was determined in conjunction with the mean of each set of sample triplicates. Methods of determining ESC have been previously described and are known in the art.
Whole blood from humans treated with Compound 1 was incubated with human recombinant eotaxin-1 to trigger eosinophil shape change (FIG. 34A) or CCR3 receptor internalization (FIG. 34B).

A further data set concerns blood eosinophils. Description: Oxazolone-induced model of eosinophilia in hairless mice (CBC). Particulars: 3-month-old hairless mice, oxazolone every other day, 30 mg/kg PO BID 2 weeks. The class given is in vivo. The protocol:
3-month-old hairless mice were treated with oxazolone (Ox) every other day and treated with control saline or 30 mg/kg Compound 1 for 2 weeks BID, PO.
Treatment Groups: • Treatment Group 1, Vehicle treatment: 3-month-old Hairless mice (n=3) received twice daily (BID) oral gavage (PO) treatment of vehicle solution for 2 weeks. • Treatment Group 2, Vehicle treatment and Oxazolone treatment: 3-month-old Hairless mice (n=6) received twice daily (BID) oral gavage (PO) treatment of vehicle solution for 2 weeks. • Treatment Group 3, Compound 1 treatment and Oxazolone treatment: 3-month-old Hairless mice (n=6) received twice daily (BID) oral gavage (PO) treatment of Compound 1, 30 mg/kg, for 2 weeks.

Data set [4] has as its system twenty-four-month-old C57 mice. In words: Overnight fecal output, water and food intake in aged mice. The class given is in vivo. Particulars: 4 weeks continuous infusion by osmotic pump. The protocol: Twenty-four-month-old C57 mice were treated for 4 weeks with continuous infusion of Compound 1 or vehicle by Alzet osmotic pump, which were implanted to continuously deliver the two treatments.
Treatment Groups: • Treatment Group 1, Old Controls: Aged C57BL/6 mice (n=15), aged 23 months, received infusion of vehicle by Alzet mini-pump, model 2002 (0.5 uL/hr), for four weeks with one replacement. • Treatment Group 2, Compound 1 (dose 2) in Old: Aged C57BL/6 mice (n=15), aged 23 months, received infusion of ˜50 mg/ml Compound 1 by Alzet mini-pump, model 2002 (0.5 uL/hr), for four weeks with one replacement.
Fecal output was measured by weighing the dry weight of fecal pellets overnight (FIG. 22). […] is a well-known symptom of Parkinson's disease. Water and food intake were measured over the same time period.

Entries after “also recorded” stand apart in the source; their conditions may differ.

As usually defined, the Ki is the dissociation constant of the complex between target and ligand, obtained from inhibition or displacement. The low end stands for a stronger hold on the target, the high end for a looser hold on the target. A word on the IC50: it is the point on the concentration scale where inhibition reaches its midpoint.

Description for CCR3 receptor: The CCR3 receptor internalization assay is FACS-based and uses human Eotaxin-1 (PreProTech, Rocky Hill, N.J.) and an anti-human CCR3 antibody labeled with APC (R&D Systems, Minneapolis, Minn.) or isotype control IgG2A antibody to monitor CCR3 receptor internalization in human eosinophils induced by human eotaxin-1 compared to naïve eosinophils. The median APC fluorescent intensity units for each sample were determined along with the mean of each set of sample triplicates.

At CCR3, `Cc1cc(C(=O)N(C)C)cc(NC(=O)[C@H]2CCC(=O)N2C2CCN(Cc3ccc(Cl)c(C)c3)CC2)n1` [Compound 1] displayed an inhibition constant (Ki) of 124 nM. Further, the concentration at 4 weeks in data set [1] (old (18-month) mice perfused 4 weeks at 0.5 μL/hr of 50 mg/mL solution) is 355 ± 43 nM. In data set [1] (young (2-month-old) mice perfused 2 weeks at 0.5 μL/hr of 50 mg/mL solution), the concentration at 2 weeks is 352 ± 31 nM. Besides, in data set [2], the “crossing of the blood-brain barrier (tissue AUC of radioactivity)” value is on record as “does not cross the blood-brain barrier (BBB) at significant levels”. For the same compound, the IC50 at CCR3 receptor was under 100 nM. In addition, the “inhibition of CCR3 receptor internalization versus plasma Compound 1 concentration” value on CCR3 receptor (whole blood from humans treated with Compound 1, incubated with human recombinant eotaxin-1) is “robust concentration-dependent effect”. The “inhibition of eosinophil shape change versus plasma Compound 1 concentration” value in data set [3] is given as “robust concentration-dependent effect”. Besides, the “blood eosinophils (percentage of WBC count)” value in the data set on blood eosinophils is listed as “decreased the oxazolone-induced increase in blood eosinophils; also recorded: decreased an oxazolone-induced increase in blood eosinophils”. Also, in data set [4], the fecal output overnight entry is “significantly lower fecal output”, the food intake overnight entry is given as “no differences in total food intake” and the water intake overnight entry was “significantly higher water intake; also recorded: drank significantly more water”.
